Data as given in US12129265B2, “Therapeutic agents and uses thereof” (Ankh Life Sciences Limited, priority 2020, dated 2024).
Values after ≈ are worked out from the molar mass of the structure shown. Where two headings read alike, the source gives them in different places.

Legend:
[1] = system: MiaPaCa-2 cells; assay: Cell colony formation assay, Example 16; type: cell-based, human
Method: (§1) In this example, the 560 and 562 compounds of Examples 12 and 14, respectively, were tested using cell colony formation assays. 500 viable S2-007 and MiaCaPa-2 cells were plated in six-well dishes and allowed to grow for 24 hours. The cells were then incubated in the presence or absence of the 560 and 562 compounds for 72 hours. The compound-containing media were then removed, and the cells were washed in PBS and incubated for an additional 10 days in complete media. The resultant colonies were then washed in PBS and fixed using 10% formalin for 10 minutes at room temperature, followed by washing with PBS and staining with Crystal Violet. The colonies of the control and compound-supplemented assays were then counted and compared.

[2] = system: S2-007 cells; assay: Cell colony formation assay, Example 16; type: cell-based, human; details: 4 μg and 6 μg, 24, 48, and 72 hours, FIG. 123
Method: as §1

[3] = system: MIA PaCa-2 cells; assay: CellTiter-Glo in vitro cell proliferation assay, Example 8; type: cell-based, Human; details: Homo sapiens, MIA PaCa-2, Pancreatic
How it was run: (§2)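 Luminescence after CellTiter-Glo addition (1:1 with water, 60 min RT) served as the proliferation read-out. Compounds at 0.0075–100 μM in DMSO were added 24 h post-plating and left for 72 h at 37 °C.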

[4] = system: H1975 (EGFR mut) cells; assay: as above; type: cell-based, Human; details: Homo sapiens
How it was run: as §2

[5] = system: AN3CA cells; assay: as above; type: cell-based, Human; details: Homo sapiens, AN3-CA
How it was run: as §2

[6] = system: Jeko-1 Bortezomib resistant cells; assay: as above; type: cell-based; details: Homo sapiens, Mantle Cell Lymphoma, 72 hours
Method: (§3) In this Example, in vitro cell proliferation assays were performed using: (1) Human Myeloma tumor cell lines; (2) Human Lymphoma tumor cell lines; (3) Solid Human tumor cell lines; and (4) Parental, Lenalidomide resistant and Bortezomib resistant Jeko-1 Mantle cell Lymphoma tumor cell lines. The compounds tested were three diharmaline compounds, namely the 518B562 (or simply 562), 560, and 561 compounds. In addition, a monoharmaline product designated as 518F014 was also tested. This monoharmaline product had the following structure:
(§4) Each proliferation assay was carried out as follows. The test cells were plated in growth media using a 384-well microtiter plate at 50 μL volume. The cells were incubated for 24 hours at 37° C. in a humidified incubator. After 24 hours of incubation, the test compounds were added to the test wells in DSMO solvent, at concentrations ranging from 0.0075-100 μM. Control wells received equal volumes of DSMO, without compound. Following drugging, the cells were incubated for 72 hours at 37° C. in a humidified incubator. After this exposure, 100 μL of a 1:1 mixture of sterile water and CellTiter-Glo® reagent (Promega) was added to each well. The plates were then incubated for 60 minutes at room temperature, followed by recording the luminescence value of each well using a luminometer as a measure of cell proliferation.

[7] = system: Jeko-1 Parental cells; assay: as above; type: cell-based; details: Homo sapiens, Mantle Cell Lymphoma, 72 hours
Method: as §3, §4

[8] = system: N87 cells; assay: as above; type: cell-based; details: Homo sapiens, N87, Gastric
Method: as §3, §4

[9] = system: RXF-393 cells; assay: as above; type: cell-based; details: Homo sapiens
Method: as §3, §4

[10] = system: SU-DHL-6 cells; assay: as above; type: cell-based; details: Homo sapiens, SU-DHL-6, Diffuse Large B-Cell Lymphoma
Method: as §3, §4

[11] = system: SU-DHL-4 cells; assay: as above; type: cell-based; details: Homo sapiens, SU-DHL-4, Diffuse Large B-Cell Lymphoma
Method: as §3, §4

[12] = system: Jeko-1 Lenalidomide resistant cells; assay: as above; type: cell-based; details: Homo sapiens, Mantle Cell Lymphoma, 72 hours
Method: as §3, §4

[13] = system: S2-007 pancreatic cancer cells; assay: Proliferation assay, Example 10; type: cell-based, human
Method: (§5) In this Example, pancreatic cancer cells (S2-007 and Mia-PaCa2) were treated with the previously described compound 518B562 at different times and concentrations, followed by generation of proliferation assays using the techniques described above. […] After 72 hours of treatment, the IC50 values of the compound against S2-007 and Mia-PaCa2 cells was determined as 3 μg/mL and 5 μg/mL, respectively.

[14] = system: Mia-PaCa2 pancreatic cancer cells; assay: Proliferation assay, Example 10; type: cell-based, human
Method: as §5

[15] = system: gene expression in S2-007 human pancreatic cancer cells; assay: RNA-Seq clustergram/heat map of cancer stem cell markers, Example 11; type: cell-based; details: 5 micro-g/mL
Method: In this Example, a clustergram/heat map of RNA sequences for cancer stem cell (CSC) markers was performed before and after treatment of S2-007 human pancreatic cancer cells with 518B562. This experiment was conducted using a Whole Transcriptome Shotgun Sequence (WTSS), followed by bioinformatics data analysis of CSC markers. An RNA-Seq/heat map was generated to obtain a genome-wide gene expression profile of the pancreatic cancer cells.
One sample of the pancreatic cancer cell line was untreated, while an identical sample was treated with 5 micro-g/mL of 518B562. Comparative RNA sequences were performed on the samples using an Illumina HISeq 2500 sequencer at a 100 bp single read resolution. The sequence readings were mapped to the human genome (assembly GRCh38.re177) using the STAR software (Dobin et al. 2012). Transcript abundance estimates were generated using the Cufflinks software (Trapnell et al. 2010) and differential gene expression estimates were calculated using the Cuffdiff software (Trapnell et al. 2013). RNA-Seq generated around […], of which between 97.2% and 98.3% of the reads mapped to the reference genome.

[16] = Solubility observation on acid addition; type: physicochemical; details: addition of an acid such as hydrochloric acid to reduce the pH of the product
Method: The 518B562 compound was prepared by mixing together particulate harmaline and vanillin at a weight ratio of about 2:1 (vanillin:harmaline), followed by adding ethanol to a final concentration of the reactions of from about 10-100 mg/mL. This mixture is then allowed to sit for approximately 3 days at 50° C. A bluish solid forms, which is filtered and washed with methanol, and recovered.

[17] = NCI-H1975, Non Small Cell Lung, 72 hours, read-out: Mean IC50
[18] = Endometrial, 72 hours, read-out: Mean IC50
[19] = RXF-393, Renal, 72 hours, read-out: Mean IC50
[20] = doses of 1-25 μg/mL, time-dependent, 24-72 hours

COc1ccc2c3c([nH]c2c1)C(CC(CC1=NCCc2c1[nH]c1cc(OC)ccc21)c1ccccc1)=NCC3 [compound 560]
colony formation ([1]; 3 μg and 5 μg, 24, 48, and 72 hours, FIG. 124): significantly disrupted colony formation at both levels of use | colony formation [2]: significantly disrupted colony formation, particularly at the 6 μg level of use | IC50 ([3]; 72 hours, read-out: Mean IC50): 3.38 µM | IC50 [4, 17]: 4.27 µM | IC50 [5, 18]: 2.71 µM | IC50 [6]: 4.08 µM | IC50 [7]: 4.7 µM | IC50 ([8]; 72 hours, read-out: Mean IC50): 3.71 µM | IC50 [9, 19]: 5.4 µM | IC50 ([10]; 72 hours, read-out: Mean IC50): 3.52 µM | IC50 ([11]; 72 hours, read-out: Mean IC50): 3.68 µM | IC50 [12]: 5.07 µM

COc1ccc2c3c([nH]c2c1)C(CC(CC1=NCCc2c1[nH]c1cc(OC)ccc21)c1ccc(O)c(OC)c1)=NCC3 [compound 562]
IC50 ([13]; Homo sapiens, Pancreatic cancer cell, after 72 hours of treatment): 3 µg/mL (≈ 5.33 µM) | inhibition of proliferation [13, 20]: significantly inhibited the proliferation | IC50 ([14]; Homo sapiens, MIA PaCa-2, after 72 hours of treatment): 5 µg/mL (≈ 8.89 µM) | inhibition of proliferation [14, 20]: significantly inhibited the proliferation | angiogenesis markers [OXTR, SYCP2, CRHR1, SPEG] [15]: down-regulated | anti-apoptotic markers [TUG1, FABP1, PI3, DOKS] [15]: down-regulated | anti-proliferative markers [NRP1, ATF2A, CYP1b1, ALPP, DEPTOR, MT1F] [15]: up-regulated | apoptotic markers [ICAM5, WNK4, ALPP, LTRC26, SHBG, MT1X] [15]: up-regulated | proliferation signaling markers [FOXj1, SPP1, C3] [15]: down-regulated | solubility [16]: increased the solubility thereof | colony formation ([1]; 3 μg, 7 μg, 10 μg, and 12 μg, 24, 48, and 72 hours, FIG. 127): significantly disrupted colony formation, particularly at the higher levels of use | IC50 ([3]; 72 hours, read-out: Mean IC50): 1.81 µM | IC50 [4, 17]: 1.84 µM | IC50 [5, 18]: 1.79 µM | IC50 [6]: 4.81 µM | IC50 [7]: 4.41 µM | IC50 ([8]; 72 hours, read-out: Mean IC50): 1.85 µM | IC50 [9, 19]: 1.79 µM | IC50 ([10]; 72 hours, read-out: Mean IC50): 0.819 µM | IC50 ([11]; 72 hours, read-out: Mean IC50): 1.81 µM | IC50 [12]: 6.19 µM

COc1ccc2c3c([nH]c2c1)C(CC(CC1=NCCc2c1[nH]c1cc(OC)ccc21)c1cccc(Oc2ccccc2)c1)=NCC3 [compound 594, diharmaline 3-phenoxybenzaldehyde]
IC50 ([3]; Example 24, read-out: Mean): 3.49 µg/mL | IC50 ([3]; Example 24, read-out: Trial A): 3.81 µg/mL | IC50 ([3]; Example 24, read-out: Trial B): 3.17 µg/mL | IC50 ([4]; NCI-H1975, Example 24, Non Small Cell Lung, read-out: Mean): 2.9 µg/mL | IC50 ([4]; NCI-H1975, Example 24, Non Small Cell Lung, read-out: Trial A): 2.92 µg/mL | IC50 ([4]; NCI-H1975, Example 24, Non Small Cell Lung, read-out: Trial B): 2.87 µg/mL | IC50 ([5]; Example 24, Endometrial, read-out: Mean): 2.79 µg/mL | IC50 ([5]; Example 24, Endometrial, read-out: Trial A): 2.79 µg/mL | IC50 ([5]; Example 24, Endometrial, read-out: Trial B): 2.8 µg/mL | IC50 ([8]; Example 24, read-out: Mean): 4.26 µg/mL | IC50 ([8]; Example 24, read-out: Trial A): 3.48 µg/mL | IC50 ([8]; Example 24, read-out: Trial B): 5.04 µg/mL | IC50 ([9]; Example 24, RXF-393, RCC, read-out: Mean): 3.16 µg/mL | IC50 ([9]; Example 24, RXF-393, RCC, read-out: Trial A): 3.16 µg/mL | IC50 ([9]; Example 24, RXF-393, RCC, read-out: Trial B): 3.16 µg/mL | IC50 ([10]; Example 24, read-out: Mean): 2.36 µg/mL | IC50 ([10]; Example 24, read-out: Trial A): 2.48 µg/mL | IC50 ([10]; Example 24, read-out: Trial B): 2.23 µg/mL | IC50 ([11]; Example 24, read-out: Mean): 2.73 µg/mL | IC50 ([11]; Example 24, read-out: Trial A): 2.77 µg/mL | IC50 ([11]; Example 24, read-out: Trial B): 2.7 µg/mL
